Experimental data taken from the NIST ThermoML archive (doi:10.1021/je0601457).
Numbers after ± are expanded uncertainties.

Assay: xn = mol fraction of the nth substance listed

c1cnccn1 [pyrazine] + O=C=O
Fluid (supercritical or subcritical phases), Linear displacement technique
Details	mass density [kg/m3]
321.55 K, 14590 kPa, x1 = 0.177	866 ± 35
322.35 K, 7410 kPa, x1 = 0.495	980 ± 39
322.35 K, 10310 kPa, x1 = 0.495	990 ± 40
322.35 K, 13000 kPa, x1 = 0.495	963 ± 39
323.35 K, 10030 kPa, x1 = 0.074	825 ± 48
323.35 K, 10240 kPa, x1 = 0.074	835 ± 34
323.35 K, 11900 kPa, x1 = 0.074	876 ± 35
324.65 K, 9340 kPa, x1 = 0.015	394 ± 23
324.65 K, 9620 kPa, x1 = 0.015	408 ± 39
324.65 K, 9830 kPa, x1 = 0.015	423 ± 37
324.65 K, 10970 kPa, x1 = 0.015	576 ± 46
324.65 K, 11380 kPa, x1 = 0.015	611 ± 34
324.65 K, 11620 kPa, x1 = 0.015	627 ± 34
324.65 K, 11760 kPa, x1 = 0.015	640 ± 33
325.85 K, 10170 kPa, x1 = 0.116	739 ± 30
325.85 K, 13140 kPa, x1 = 0.116	767 ± 31
326.15 K, 9900 kPa, x1 = 0.019	460 ± 57
326.15 K, 10520 kPa, x1 = 0.019	580 ± 53
326.15 K, 11140 kPa, x1 = 0.019	656 ± 42
326.15 K, 11520 kPa, x1 = 0.019	688 ± 33
326.15 K, 12310 kPa, x1 = 0.019	729 ± 30
326.65 K, 8860 kPa, x1 = 0.397	1023 ± 41
326.65 K, 11070 kPa, x1 = 0.397	1027 ± 41
326.65 K, 14100 kPa, x1 = 0.397	1036 ± 41
327.25 K, 10170 kPa, x1 = 0.146	980 ± 39
327.25 K, 15900 kPa, x1 = 0.146	990 ± 46
328.15 K, 11830 kPa, x1 = 0.308	980 ± 39
328.15 K, 13760 kPa, x1 = 0.308	990 ± 40
328.15 K, 15340 kPa, x1 = 0.308	997 ± 40
332.95 K, 18030 kPa, x1 = 0.224	879 ± 35
334.05 K, 11550 kPa, x1 = 0.177	803 ± 33
334.05 K, 11900 kPa, x1 = 0.177	809 ± 32
334.05 K, 15590 kPa, x1 = 0.177	831 ± 33
334.75 K, 10340 kPa, x1 = 0.495	980 ± 39
334.75 K, 13550 kPa, x1 = 0.495	987 ± 39
334.75 K, 19410 kPa, x1 = 0.495	1002 ± 40
337.05 K, 11660 kPa, x1 = 0.146	760 ± 31
337.05 K, 15140 kPa, x1 = 0.146	792 ± 32
337.85 K, 12170 kPa, x1 = 0.09	738 ± 31
337.85 K, 12590 kPa, x1 = 0.09	752 ± 32
337.85 K, 15900 kPa, x1 = 0.09	815 ± 33
338.45 K, 11520 kPa, x1 = 0.019	475 ± 20
338.45 K, 11970 kPa, x1 = 0.019	512 ± 36
338.45 K, 12170 kPa, x1 = 0.019	526 ± 35
338.45 K, 12590 kPa, x1 = 0.019	565 ± 36
339.45 K, 12590 kPa, x1 = 0.074	708 ± 44
339.45 K, 13280 kPa, x1 = 0.074	750 ± 46
340.95 K, 12380 kPa, x1 = 0.116	693 ± 28
340.95 K, 15210 kPa, x1 = 0.116	739 ± 30
345.05 K, 12450 kPa, x1 = 0.224	823 ± 33
345.05 K, 19340 kPa, x1 = 0.224	858 ± 34
345.55 K, 10380 kPa, x1 = 0.397	995 ± 40
345.55 K, 12480 kPa, x1 = 0.397	999 ± 40
345.55 K, 12860 kPa, x1 = 0.397	1002 ± 40
347.75 K, 13030 kPa, x1 = 0.177	758 ± 31
347.75 K, 14100 kPa, x1 = 0.177	770 ± 31
347.75 K, 16790 kPa, x1 = 0.177	792 ± 32
348.05 K, 12310 kPa, x1 = 0.308	965 ± 39
348.05 K, 17620 kPa, x1 = 0.308	986 ± 39
348.05 K, 19720 kPa, x1 = 0.308	996 ± 40
348.95 K, 13380 kPa, x1 = 0.09	684 ± 27
348.95 K, 13690 kPa, x1 = 0.09	683 ± 27
348.95 K, 16450 kPa, x1 = 0.09	771 ± 32
350.55 K, 13760 kPa, x1 = 0.116	665 ± 27
350.55 K, 15520 kPa, x1 = 0.116	707 ± 29
350.85 K, 13410 kPa, x1 = 0.146	708 ± 28
351.95 K, 13450 kPa, x1 = 0.074	604 ± 27
351.95 K, 16280 kPa, x1 = 0.074	719 ± 31
352.35 K, 11140 kPa, x1 = 0.019	335 ± 23
352.35 K, 11210 kPa, x1 = 0.019	352 ± 21
352.35 K, 12310 kPa, x1 = 0.019	415 ± 23
352.35 K, 12480 kPa, x1 = 0.019	428 ± 22
352.35 K, 12790 kPa, x1 = 0.019	443 ± 22
360.85 K, 14860 kPa, x1 = 0.116	630 ± 26
360.85 K, 17720 kPa, x1 = 0.116	695 ± 29
362.25 K, 14720 kPa, x1 = 0.177	709 ± 29
362.25 K, 14830 kPa, x1 = 0.177	712 ± 29
362.25 K, 19480 kPa, x1 = 0.177	761 ± 31
362.35 K, 14660 kPa, x1 = 0.224	779 ± 31
362.35 K, 18660 kPa, x1 = 0.224	802 ± 32
365.65 K, 15210 kPa, x1 = 0.09	591 ± 24
366.25 K, 14930 kPa, x1 = 0.074	542 ± 22
366.25 K, 15760 kPa, x1 = 0.074	547 ± 23
366.25 K, 16860 kPa, x1 = 0.074	511 ± 23
369.65 K, 14550 kPa, x1 = 0.397	964 ± 39
369.65 K, 16410 kPa, x1 = 0.397	968 ± 39
369.65 K, 20720 kPa, x1 = 0.397	982 ± 39
372.55 K, 11480 kPa, x1 = 0.495	959 ± 38
372.55 K, 12720 kPa, x1 = 0.495	962 ± 38
372.55 K, 15000 kPa, x1 = 0.495	970 ± 39

linear displacement
Details	mass density [kg/m3]
321.55 K, Liquid, x1 = 0.177	834 ± 33
322.35 K, Liquid, x1 = 0.495	975 ± 39
323.35 K, Liquid, x1 = 0.074	810 ± 32
324.65 K, Gas, x1 = 0.015	382 ± 15
325.85 K, Liquid, x1 = 0.116	734 ± 30
326.15 K, Gas, x1 = 0.019	442 ± 18
326.65 K, Liquid, x1 = 0.397	1017 ± 41
327.25 K, Liquid, x1 = 0.146	790 ± 32
328.15 K, Liquid, x1 = 0.308	970 ± 39
332.95 K, Liquid, x1 = 0.224	842 ± 34
334.05 K, Liquid, x1 = 0.177	795 ± 32
334.75 K, Liquid, x1 = 0.495	972 ± 39
337.05 K, Liquid, x1 = 0.146	753 ± 30
337.85 K, Liquid, x1 = 0.09	727 ± 29
338.45 K, Gas, x1 = 0.019	431 ± 18
339.45 K, Liquid, x1 = 0.074	695 ± 28
340.95 K, Liquid, x1 = 0.116	684 ± 27
345.05 K, Liquid, x1 = 0.224	816 ± 33
345.55 K, Liquid, x1 = 0.397	991 ± 40
347.75 K, Liquid, x1 = 0.177	751 ± 30
348.05 K, Liquid, x1 = 0.308	957 ± 38
348.95 K, Liquid, x1 = 0.09	672 ± 27
350.55 K, Liquid, x1 = 0.116	651 ± 26
350.85 K, Liquid, x1 = 0.146	703 ± 29
351.95 K, Liquid, x1 = 0.074	589 ± 24
352.35 K, Gas, x1 = 0.019	324 ± 18
360.85 K, Liquid, x1 = 0.116	620 ± 25
362.25 K, Liquid, x1 = 0.177	704 ± 29
362.35 K, Liquid, x1 = 0.224	770 ± 31
365.65 K, Liquid, x1 = 0.09	582 ± 23
366.25 K, Liquid, x1 = 0.074	532 ± 22
369.65 K, Liquid, x1 = 0.397	952 ± 38
372.55 K, Liquid, x1 = 0.495	955 ± 38
